Laboratory results published in article PMC12799362, “The effect of dimeric bisbenzimidazoles on the activity of DNA repair enzymes TDP1, TDP2, PARP1 and PARP2” (Vavilov Journal of Genetics and Breeding, 2025).

What was measured:
[1] = biological target: T1, poly(ADP-ribose) polymerase 1 (PARP1) (Homo sapiens, UniProt P09874); assay: PARP1 auto-poly(ADP-ribosyl)ation with [32P]-NAD+; format: biochemical; conditions: compound 500 μM, PARP1 200 nM, 0.3 mM [32P]-NAD+, 2 min, 37 °C; mean ± SD; read-out: PARP1 % of residual activity (500 μM)
T1 construct: made in house; host or cells: insect cells (baculovirus expression system)
T1 sequence (P09874 whole entry): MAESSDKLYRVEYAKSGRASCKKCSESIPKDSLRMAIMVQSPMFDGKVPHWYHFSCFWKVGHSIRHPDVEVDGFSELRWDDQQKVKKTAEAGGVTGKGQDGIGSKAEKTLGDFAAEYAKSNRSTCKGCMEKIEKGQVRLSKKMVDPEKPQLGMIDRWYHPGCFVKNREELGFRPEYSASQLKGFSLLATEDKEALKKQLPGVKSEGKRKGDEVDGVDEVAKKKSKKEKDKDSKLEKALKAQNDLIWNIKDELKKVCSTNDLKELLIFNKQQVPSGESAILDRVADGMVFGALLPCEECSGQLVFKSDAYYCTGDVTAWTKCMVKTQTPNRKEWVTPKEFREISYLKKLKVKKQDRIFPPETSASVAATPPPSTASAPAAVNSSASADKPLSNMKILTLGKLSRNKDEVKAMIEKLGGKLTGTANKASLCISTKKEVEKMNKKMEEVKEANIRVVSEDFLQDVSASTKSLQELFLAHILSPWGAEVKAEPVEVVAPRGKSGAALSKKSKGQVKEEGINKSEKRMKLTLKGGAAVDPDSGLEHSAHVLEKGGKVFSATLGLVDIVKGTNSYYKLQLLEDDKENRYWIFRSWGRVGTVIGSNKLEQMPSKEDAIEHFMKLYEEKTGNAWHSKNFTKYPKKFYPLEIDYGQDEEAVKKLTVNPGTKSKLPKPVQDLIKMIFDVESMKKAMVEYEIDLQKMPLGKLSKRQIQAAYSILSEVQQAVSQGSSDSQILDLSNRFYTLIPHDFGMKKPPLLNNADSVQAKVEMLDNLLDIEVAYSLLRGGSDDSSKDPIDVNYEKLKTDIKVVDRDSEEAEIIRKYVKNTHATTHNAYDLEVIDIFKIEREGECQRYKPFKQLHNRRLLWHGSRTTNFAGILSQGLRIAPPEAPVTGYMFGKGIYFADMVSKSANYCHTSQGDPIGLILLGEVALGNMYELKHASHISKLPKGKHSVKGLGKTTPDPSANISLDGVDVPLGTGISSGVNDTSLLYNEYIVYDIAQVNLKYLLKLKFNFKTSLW
Text: (§1) Recombinant human proteins tyrosyl-DNA phosphodiesterase 1 (TDP1) and tyrosyl-DNA phosphodiesterase 2 (TDP2) were expressed in the E. coli system, poly(ADP-ribose) polymerase 1 (PARP1) and poly(ADP-ribose) polymerase 2 (PARP2) were expressed in insect cells using a baculovirus expression system and purified as described in (Sukhanova et al., 2004; Sherstyuk et al., 2019; Dyrkheeva et al., 2020, 2021).
(§2) Determination of PARP1 and PARP2 activity. For determination of PARP1 and PARP2 enzyme activity in the presence and absence of test compounds, radiolabeled [32P]-NAD⁺ was synthesized from α-[32P]-ATP according to the protocol (Sherstyuk et al., 2019). The auto-poly(ADPribosyl) ation reaction was performed in buffer for PARP1: 50 mM Tris-HCl, pH 8.0, 10 mM MgCl2, 150 mM NaCl, and 7 mM β-mercaptoethanol, as well as 2 A260 units/ml activated DNA, 0.3 mM [32P]-NAD⁺ at 37 °C. The reaction was initiated by addition of PARP1 to 200 nM and carried out for 2 min
(§3) The buffer for PARP2 contained: 50 mM Tris-HCl, pH 8.0, 3 mM spermine, 150 mM NaCl, and 7 mM β-mercaptoethanol, 2 A260 units/ml activated DNA, 0.6 mM [32P]-NAD⁺ at 37 °C. The reaction was initiated by addition of PARP2 to 600 nM, and the reaction mixtures were incubated for 5 min. The reaction was stopped by placing 5 μl aliquots on Whatman 1 paper filters impregnated with 5 % trichloroacetic acid (TCA). The filters were washed with 5 % TCA four times and air-dried after removal of TCA with 90 % ethanol. The incorporation of the radioactive label into the reaction product was calculated using a Typhoon FLA 9500 scanner (GE Healthcare, Chicago, Illinois, USA). At least three independent experiments were performed.

[2] = system: poly(ADP-ribose) polymerase 2 (PARP2); assay: PARP2 auto-poly(ADP-ribosyl)ation with [32P]-NAD+; format: biochemical, human; conditions: compound 500 μM, PARP2 600 nM, 0.6 mM [32P]-NAD+, 5 min, 37 °C; mean ± SD
Text: as §1, §2, §3

[3] = biological target: T2, tyrosyl-DNA phosphodiesterase 1 (TDP1) (Homo sapiens, UniProt Q9NUW8); assay: Real-time fluorescent detection of TDP1 activity (BHQ1 cleavage from 3′-end of single-stranded FAM oligonucleotide); format: biochemical; conditions: recombinant TDP1 1.5 nM, 50 nM single-stranded oligonucleotide, 26 °C; mean ± SD, at least three replicates
T2 construct: made in house; host or cells: E. coli
T2 sequence (Q9NUW8 whole entry): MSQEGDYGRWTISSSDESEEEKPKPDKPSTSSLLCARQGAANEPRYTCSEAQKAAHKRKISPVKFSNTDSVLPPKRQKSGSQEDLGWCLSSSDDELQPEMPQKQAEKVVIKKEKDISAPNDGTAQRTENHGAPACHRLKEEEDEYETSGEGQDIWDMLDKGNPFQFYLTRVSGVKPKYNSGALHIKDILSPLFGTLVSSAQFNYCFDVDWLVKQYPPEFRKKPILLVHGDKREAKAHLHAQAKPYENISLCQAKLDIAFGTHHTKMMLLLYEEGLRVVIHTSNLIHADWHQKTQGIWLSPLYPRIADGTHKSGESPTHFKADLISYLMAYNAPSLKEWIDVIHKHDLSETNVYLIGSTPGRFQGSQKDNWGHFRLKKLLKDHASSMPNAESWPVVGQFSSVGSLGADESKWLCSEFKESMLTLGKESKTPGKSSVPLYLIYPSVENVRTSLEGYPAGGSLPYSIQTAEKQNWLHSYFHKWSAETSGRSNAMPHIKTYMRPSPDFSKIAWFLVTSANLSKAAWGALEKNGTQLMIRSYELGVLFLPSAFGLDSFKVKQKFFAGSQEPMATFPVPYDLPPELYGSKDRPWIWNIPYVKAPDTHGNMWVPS
Method: as §1
Determination of TDP1 activity. The reaction mixture (200 μl) for real-time fluorescent detection of TDP1 enzyme activity (Zakharenko et al., 2015) contained TDP1 reaction buffer (50 mM Tris-HCl, pH 8.0, 50 mM NaCl, and 7 mM β-mercaptoethanol), 50 nM oligonucleotide 5′-FAM-AAC GTC AGG GTC TTC C-BHQ1-3′, the test compound at various concentrations, and TDP1 at a final concentration of 1.5 nM. The reaction mixtures were incubated at a constant temperature of 26 °C in a POLARstar OPTIMA microplate fluorometer (BMG LABTECH, GmbH, Ortenberg, Germany). Fluorescence intensity (Ex485/Em520 nm) was measured every minute for 10 min. Mean values of half-maximal inhibitory concentration (IC50 – the concentration of the compound that inhibited 50 % of enzyme activity compared to the untreated control well containing only enzyme and substrate) were determined using a dose-response curve of the fluorescence signal level versus inhibitor concentration and calculated using MARS Data Analysis 2.0 (BMG LABTECH). Kinetic curves were obtained in at least three independent experiments and statistically processed in OriginPro 8.6.0 (OriginLab, Northampton, Massachusetts, USA).
The third group of compounds includes derivatives of the monomeric compound MB2Py(Ac), which is an isosteric analog of MB3, due to the fact that the pyrrolecarboxamide fragment contained in its structure can act as a hydrogen atom donor at the carboxamide nitrogen for hydrogen bond formation, in a position analogous to benzimidazole. Dimeric derivatives are represented by the DB2Py(n) series containing n-alkyldicarboxylic acids as a linker. This series is represented by a set of compounds containing 1, 3, 4, 5, 7, 9, and 11 methylene units, which allowed for a more accurate assessment of the dependence of the inhibitory activity of compounds on spacer length. The DB2Py(n) series differs from the DB3(n) series by the presence, in addition to the bisbenzimidazole structure, of a pyrrolecarboxamide structure, which is a fragment of the AT-specific antibiotic netropsin.Using the real-time fluorescence analysis method, halfmaximal inhibitory concentration (IC50) values of the studied compounds (see the Table) were obtained in the reaction of BHQ1 cleavage from the 3′-end of the oligonucleotide by TDP1, which led to an increase in FAM fluorescence at the 5′-end of the chain (Zakharenko et al., 2015). It should also be noted that a single-stranded oligonucleotide was used as substrate to exclude the binding of dimeric bisbenzimidazoles as minor-groove ligands to the DNA substrate and direct their action toward the enzymatic target.

[4] = biological target: T3, tyrosyl-DNA phosphodiesterase 2 (TDP2) (Homo sapiens, UniProt O95551); assay: TDP2 activity, removal of 5′-tyrosine from oligonucleotide substrate, denaturing PAGE; format: biochemical; conditions: inhibitor 500 μM, TDP2 200 nM, substrate 100 nM, 10 min, 37 °C; mean ± SD; read-out: TDP2 % of residual activity (500 μM)
T3 construct: made in house; host or cells: E. coli
T3 sequence (O95551 1-362): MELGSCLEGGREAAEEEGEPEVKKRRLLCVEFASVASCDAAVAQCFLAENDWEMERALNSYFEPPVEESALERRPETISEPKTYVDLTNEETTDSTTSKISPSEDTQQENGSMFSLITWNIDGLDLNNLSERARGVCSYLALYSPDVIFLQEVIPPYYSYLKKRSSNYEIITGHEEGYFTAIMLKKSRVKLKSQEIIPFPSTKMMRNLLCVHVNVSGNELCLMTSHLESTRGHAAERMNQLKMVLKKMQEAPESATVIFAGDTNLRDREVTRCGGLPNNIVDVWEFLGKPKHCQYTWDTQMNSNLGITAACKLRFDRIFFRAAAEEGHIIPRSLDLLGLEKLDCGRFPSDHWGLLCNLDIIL
Text: as §1
Determination of TDP2 activity. For determination of TDP2 enzyme activity, an oligonucleotide 5′-tyrosine-AAC GTC AGG GTC TTC C-FAM-3′ containing a 6-FAM label at the 3′-end and an L-tyrosine residue attached via the phenolic OH group to the 5′-terminal phosphate was used as substrate, synthesized at the Russian-French-Japanese Laboratory of Bionanotechnology of Novosibirsk State University as described in (Dyrkheeva et al., 2021). The substrate at a concentration of 100 nM was incubated with TDP2 at a concentration of 200 nM in the absence or presence of inhibitor (500 μM) for 10 min at 37 °C in buffer containing 50 mM Tris-HCl, pH 8.0, 50 mM NaCl, 7 mM β-mercaptoethanol (Dyrkheeva et al., 2021). The reaction was stopped by addition of PAGE loading buffer (TBE, 10 % formamide, 7 M urea, 20 mM EDTA, 0.1 % xylene cyanol, and 0.1 % bromophenol blue). The samples were then heated at 90 °C for 5 min. The enzymatic reaction products were separated by electrophoresis in 20 % denaturing PAGE with 7 M urea at an acrylamide to bisacrylamide ratio of 19:1. A high-resolution Typhoon FLA 9500 laser scanner (GE Healthcare, Chicago, Illinois, USA) was used for gel scanning and visualization, and the data were analyzed using QuantityOne 4.6.7 software (Bio- Rad Laboratories, Inc., Hercules, California, USA). At least three independent experiments were performed, and statistical processing was carried out using OriginPro 8.6.0 (OriginLab, Northampton, Massachusetts, USA).
To study the effect of the studied compounds on TDP2 activity, we tested the ability of this enzyme to remove the tyrosine residue from the 5′-end of the oligonucleotide substrate in the absence and presence of inhibitors, as described in (Dyrkheeva et al., 2021).

| SMILES | remaining activity at 500 µM [1] [%] | PARP2 % of residual activity (500 μM) [2] | IC50 [3] [nM] | remaining activity at 500 µM [4] [%] |
| --- | --- | --- | --- | --- |
| CN1CCN(c2ccc3nc(-c4ccc5nc(-c6ccc7nc(CNC(=O)CC(=O)NCc8nc9ccc(-c%10nc%11ccc(-c%12nc%13ccc(N%14CCN(C)CC%14)cc%13[nH]%12)cc%11[nH]%10)cc9[nH]8)[nH]c7c6)[nH]c5c4)[nH]c3c2)CC1 [DB3(1)] | 55 ± 13 | ~ 100% | > 50000 | 70 ± 6 |
| CN1CCN(c2ccc3nc(-c4ccc5nc(-c6ccc7nc(CNC(=O)CCCCCC(=O)NCc8nc9ccc(-c%10nc%11ccc(-c%12nc%13ccc(N%14CCN(C)CC%14)cc%13[nH]%12)cc%11[nH]%10)cc9[nH]8)[nH]c7c6)[nH]c5c4)[nH]c3c2)CC1 [DB3(5)] | 62 ± 16 | ~ 100% | > 50000 | 65 ± 10 |
| CN1CCN(c2ccc3nc(-c4ccc5nc(-c6ccc7nc(CNC(=O)CCCCCCCCCC(=O)NCc8nc9ccc(-c%10nc%11ccc(-c%12nc%13ccc(N%14CCN(C)CC%14)cc%13[nH]%12)cc%11[nH]%10)cc9[nH]8)[nH]c7c6)[nH]c5c4)[nH]c3c2)CC1 [DB3(9)] | ~100 | ~ 100% | > 50000 | ~100 |
| CN1CCN(c2ccc3nc(-c4ccc5nc(-c6ccc7nc(CNC(=O)CN8CCN(CC(=O)NCc9nc%10ccc(-c%11nc%12ccc(-c%13nc%14ccc(N%15CCN(C)CC%15)cc%14[nH]%13)cc%12[nH]%11)cc%10[nH]9)CC8)[nH]c7c6)[nH]c5c4)[nH]c3c2)CC1 [DB3P(1)] | 70 ± 12 | ~ 100% | 100 ± 50 | ~100 |
| CN1CCN(c2ccc3nc(-c4ccc5nc(-c6ccc7nc(CNC(=O)CCN8CCN(CCC(=O)NCc9nc%10ccc(-c%11nc%12ccc(-c%13nc%14ccc(N%15CCN(C)CC%15)cc%14[nH]%13)cc%12[nH]%11)cc%10[nH]9)CC8)[nH]c7c6)[nH]c5c4)[nH]c3c2)CC1 [DB3P(2)] | 40 ± 5 | ~ 100% | 110 ± 10 | ~100 |
| CN1CCN(c2ccc3nc(-c4ccc5nc(-c6ccc7nc(CNC(=O)CCCN8CCN(CCCC(=O)NCc9nc%10ccc(-c%11nc%12ccc(-c%13nc%14ccc(N%15CCN(C)CC%15)cc%14[nH]%13)cc%12[nH]%11)cc%10[nH]9)CC8)[nH]c7c6)[nH]c5c4)[nH]c3c2)CC1 [DB3P(3)] | 47 ± 14 | ~ 100% | 200 ± 50 | ~100 |
| CN1CCN(c2ccc3nc(-c4ccc5nc(-c6ccc7nc(CNC(=O)CCCCN8CCN(CCCCC(=O)NCc9nc%10ccc(-c%11nc%12ccc(-c%13nc%14ccc(N%15CCN(C)CC%15)cc%14[nH]%13)cc%12[nH]%11)cc%10[nH]9)CC8)[nH]c7c6)[nH]c5c4)[nH]c3c2)CC1 [DB3P(4)] | 48 ± 15 | ~ 100% | 150 ± 30 | ~100 |
| CC(=O)NCc1nc2ccc(-c3nc4ccc(N5CCN(C)CC5)cc4[nH]3)cc2[nH]1 [MB2(Ac)] | ~100 | ~ 100% | 1500 ± 500 | ~100 |
| CCCn1cc(NC(C)=O)cc1-c1nc2ccc(-c3nc4ccc(N5CCN(C)CC5)cc4[nH]3)cc2[nH]1 [MB2Py(Ac)] | ~100 | ~ 100% | 5000 ± 2000 | ~100 |
| CN1CCN(c2ccc3nc(-c4ccc5nc(CN)[nH]c5c4)[nH]c3c2)CC1 [MB2] | ~100 | ~ 100% | 2000 ± 1000 | ~100 |
| CN1CCN(c2ccc3nc(-c4ccc5nc(-c6ccc7nc(CN)[nH]c7c6)[nH]c5c4)[nH]c3c2)CC1 [MB3] | 65 ± 15 | ~ 100% | 700 ± 50 | ~100 |
